pEC50: −log10 of the molar value. “Also recorded” adds a separate entry of the source.
How the values were obtained:
[1] = test system: Mut6; assay: Cytotox testing (CellTiter-Glo ATP assay) in Mut6 cells; assay type: cell-based, mouse
Procedure: Mut6 tumor cells were cultured in DMEM/F12 media supplemented by EGF (10 ng/mL), basic FGF (10 ng/mL), heparin (4 ug/mL), glucose (total 21 mM), NaHCO3 (113 μg/mL), Hepes (119 μg/mL), glutamine (2 mM), sodium pyruvate (1 mM), N2 supplement (ThermoFisher Gibco 17502-048, 100×, at 100-fold dilution), B27 supplement (ThermoFisher Gibco 12587-010, 50×, at 100-fold dilution), and penicillin/streptomycin (ThermoFisher, final 1%). Cells were maintained in Ultra-low attachment plate (Corning) as sphere-forming cells. For ATP assays and protein/RNA isolation, cells were plated into 96-well plates or 6-well plated that were coated with poly-lysine (Sigma P6407, 10 μg/mL in PBS, 4 hr at 37° C.) and laminin (ThermoFisher 23017015, ˜5 mg/L in PBS, overnight at 37° C.). MEFs and Astrocytes were cultured in DMEM supplemented with 10% FBS and 1% Penicillin/Streptomycin.
2,000 cells were plated into each well of 96-well plates. About 3 hours later, cells were treated by 12M11, at 800-fold dilution (4 mM stock was diluted into 5 μM final concentration). […] CellTiter-Glo assay (Promega) was performed according to manufacturer's instructions, by adding 20 μL of reagent into each well. Luminescence signal was detected by the PolarStar plate reader (BMG Labtech). Experiments were performed in quadruplicate, and results are presented with mean average −/+ standard deviation. EC505 were calculated by GraphPad Prism6 software.
The compounds described herein were tested using a cell-based cytotoxicity assay against neuronal stem cells in Mut6, which is a mouse glioblastoma model cell line.

[2] = In vivo plasma PK, 10 mg/kg IP; design: species or system mice; details: female, CD-1, mouse
Procedure: 22E. 21 female CD-1 mice (6 wks) were administered 10 mg/kg L129 IP, 0.2 ml/mouse formulated as 5% DMSO, 10% Cremophor EL, and 85% D5W. Plasma was processed from whole blood by centrifugation of the ACD treated blood for 10′ at 10,000 rpm in a standard centrifuge. Brains were weighed and snap frozen in liquid nitrogen. Brain homogenates were prepared by mincing the brain tissue and homogenizing in a 3-fold volume of PBS (total volume of homogenate in mL=4× weight in g.) 100 microliters plasma or brain homogenate was mixed with 200 microliters of acetonitrile containing formic acid and an internal standard (final concentration of formic acid=0.1%, IS=25 ng/mL). The samples were vortexed 15 sec, incubated at room temp for 10′ and spun 2×13,200 rpm in a standard microcentrifuge. The supernatant was then analyzed by LC/MS/MS. Buffer A: Water+0.1% formic acid; Buffer B: MeOH+0.1% formic acid; flow rate 1.5 ml/min; column Agilent C18 XDB column, 5 micron packing 50×4.6 mm size; 0-1.5 min 3% B, 1.5-2.5 min gradient to 100% B; 2.5-3.5 min 100% B, 3.5-3.6 min gradient to 3% B; 3.6-4.5 min 3% B; IS N-benzylbenzamide (transition 212.1 to 91.1); Compound transition 474.2 to 336.3. These methods were used data obtained in the FIGS. 22B and 22E.

[3] = test system: cancer cell lines (HeLa, DAOY, MCF7, 435 and HCC38 cells); assay: CellTiter-Glo cell viability in cancer cell lines; assay type: cell-based, human; details: significant proportion of cell lines tested, excluding DAOY and MEF
Procedure: The activity of compound 12M11 was tested against a variety of cancer cell lines (see FIG. 2A), including those are routinely used in the literature such as HeLa, DAOY, MCF7, 435 and HCC38 cells. […] Just as for MEF cells, without wishing to be bound by any theory, it is believed that the resistance of DAOY cells to the OxyPhos inhibitor 12M11 can be attributed to their higher ATP levels per cell (FIG. 13B) combined with lower intrinsic OxyPhos activity as assessed by TMRE staining (FIG. 13C).

[4] = test system: ATF4; assay: ATF4 western blot in Mut6 cells; assay type: cell-based, mouse
Procedure: Mut6 tumor cells and MEFs were treated by DMSO or 1 μM 12M11 for the indicated times. Cell lysate was prepared by RIPA buffer with phosphatase inhibitor (Thermo) and protease inhibitor (Roche). Antibodies are purchased from Santa Cruz (ATF4), Cell Signaling (pS6, S6, AMPK, and pAMPK), and Millipore (Gapdh).

[5] = test system: Mut6; assay: OCR and ECAR measurement (Seahorse) in Mut6; assay type: cell-based, mouse
Procedure: Oxygen consumption rate (OCR) and extracellular acidification rate (ECAR) were measured by Seahorse Bioscience instrument (XF24) with 80-90% confluent cells, according to the manufacturer's protocol. Briefly, cells were equilibrated for 1 hr at 37° C. incubator lacking CO2. Oxygen concentration and pH in media were measured during sequential treatment with 12M11, Oligomycin (1 μM), FCCP (1 μM), and Rotenone (200 nM). A minimum of three wells were utilized per condition to calculate OCR and ECAR.

[6] = test system: Mut6; assay: Glucose and lactate in culture media of Mut6 cells; assay type: cell-based, mouse; details: Mut6, 7 hrs incubation
Procedure: Mut6 cells were incubated with 12M11 for 7 hrs, and the collected culture media was measured for glucose, lactate, glutamine, and glutamate (Birsoy, et al., 2014; Lunt and Vander Heiden, 2011). […] Oxygen consumption and extracellular acidification using a XF24 Seahorse analyzer was used to measure cellular oxygen consumption rate (OCR) and extracellular acidification rate (ECAR) (FIG. 8).

[7] = test system: Mut6; assay: Change in ATP levels in Mut6 cells; assay type: cell-based, mouse; details: Mut6, 2-6 hr
Procedure: (§1) Mut6 tumor cells or MEFs were plated into 96-well plates. One day later, Oligomyin (2 μM), Rotenone (200 nM), or 12M11 (1 μM) were added into each well and then ATP levels were measured by Cell-Titer Glo (Promega) after 2 hr, 4 hr, or 6 hr incubation. Each data is mean of six replicates with ± standard deviation.

[8] = test system: MEF; assay: Change in ATP levels in MEF cells; assay type: cell-based, mouse; details: 2-6 hr
Procedure: as §1

With CCc1n(CC(=O)O[C@@H]2C[C@H](C)CC[C@H]2C(C)C)c2ccccc2[n+]1C.[Cl-] [Compound 12M11] the “activity against Mut6 cells” value ([1]; CellTiter-Glo) was “specific nanomolar activity; also recorded: specific toxicity”, the pEC50 ([1]; Mus musculus, Mut6 cells, FIG. 1, read-out: potency) was ~7.00 and the “cell death on Mut6 cells” value ([1]; after six hours of exposure) was “irrevocable cell death”. For the same compound, the Cmax [2] was 2.7 ng/mL, the EC50 [3] was “mid nanomolar to low micromolar range” and the ATF4 protein level [4] was “activation”. For the same compound, the “extracellular acidification rate (ECAR)” value [5] was “dramatically increases”, the “oxygen consumption rate (OCR)” value [5] was “decrease” and the lactate secretion [6] was “increased”. For the same compound, the uptake of glucose [6] was “increased”, the “ATP levels (% change from basal)” value [7] was “decrease significantly” and the “ATP levels (% change from basal)” value [8] was “increase”.

Reference: patent publication US20180354909A1, “SUBSTITUTED BENZIMIDAZOLIUM, PYRIDO-IMIDAZOLIUM, OR PYRAZINO-IMIDAZOLIUM COMPOUNDS AS CHEMOTHERAPEUTICS” (The Board of Regents of the University of Texas System, priority 2015, published 2018)
